What follows are compounds tested against Substance-P receptor (Homo sapiens, UniProt P25103) (assay: Displacement of [125I]-substance P from hNK1 receptor in chinese hamster ovarian (CHO) cells).
Format: cell-based

Sequence of Substance-P receptor (P25103 whole entry): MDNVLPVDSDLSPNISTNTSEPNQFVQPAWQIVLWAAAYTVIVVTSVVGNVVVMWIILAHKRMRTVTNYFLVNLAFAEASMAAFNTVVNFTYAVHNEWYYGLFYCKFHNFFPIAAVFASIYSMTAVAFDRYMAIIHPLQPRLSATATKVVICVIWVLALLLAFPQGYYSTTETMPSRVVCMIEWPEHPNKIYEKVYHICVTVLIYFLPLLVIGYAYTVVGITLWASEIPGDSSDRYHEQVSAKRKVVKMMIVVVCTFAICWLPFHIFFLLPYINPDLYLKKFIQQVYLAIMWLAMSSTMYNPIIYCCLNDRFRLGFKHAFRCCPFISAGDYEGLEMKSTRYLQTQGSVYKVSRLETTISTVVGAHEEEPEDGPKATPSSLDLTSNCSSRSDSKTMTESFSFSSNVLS

IC50 [nM]	SMILES
17	CS(=O)(=O)Nc1ccccc1C1CCN(C(=O)[C@H](COCc2ccc(Cl)c(Cl)c2)NCc2ccccc2)CC1
330	Cc1ccccc1C1CCN(C(=O)[C@H](COCc2ccc(Cl)c(Cl)c2)NCc2ccccc2)CC1
382	CS(=O)(=O)NCC1(c2ccccc2)CCN(C(=O)[C@H](COCc2ccc(Cl)c(Cl)c2)NCc2ccccc2)CC1
4.8	CS(=O)(=O)Nc1ccccc1N1CCN(C(=O)[C@H](COCc2ccc(Cl)c(Cl)c2)NCc2ccccc2)CC1
2500	CS(=O)(=O)N1CCC2(CCN(C(=O)[C@H](COCc3ccc(Cl)c(Cl)c3)NCc3ccccc3)CC2)C1
558	Cc1ccccc1N1CCN(C(=O)[C@H](COCc2ccc(Cl)c(Cl)c2)NCc2ccccc2)CC1
263	COc1ccccc1C1CCN(C(=O)[C@H](COCc2ccc(Cl)c(Cl)c2)NCc2ccccc2)CC1
61	CN(c1ccccc1C1CCN(C(=O)[C@H](COCc2ccc(Cl)c(Cl)c2)NCc2ccccc2)CC1)S(C)(=O)=O
1	CS(=O)(=O)N1CC2(CCN(C(=O)[C@H](COCc3ccc(Cl)c(Cl)c3)NCc3ccccc3)CC2)c2ccccc21
602	O=C([C@H](COCc1ccc(Cl)c(Cl)c1)NCc1ccccc1)N1CCC2(CCc3ccccc32)CC1
547	CS(=O)(=O)N(CC1CCN(C(=O)[C@H](COCc2ccc(Cl)c(Cl)c2)NCc2ccccc2)CC1)c1ccccc1
13	COc1ccccc1N1CCN(C(=O)[C@H](COCc2ccc(Cl)c(Cl)c2)NCc2ccccc2)CC1

Reference: ChEMBL document CHEMBL1130887, “Serine derived NK1 antagonists. 2: A pharmacophore model for arylsulfonamide binding” (Bioorg Med Chem Lett, 1998)
